Data taken from the supplement of paper PMC6045584.
± gives the standard deviation of the averaged measurements.

Compound: CCN(CC)CCCCNc1ncc2cc(-c3cc(OC)cc(OC)c3)c(NC(=O)NC(C)(C)C)nc2n1
Experiment: surviving fraction relative to DMSO-only wells; higher = less growth inhibition
Conditions: 50 nM; exposure time: 5 days
Summary of the method: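 Luminescence normalised to the median of DMSO-only wells defines surviving fraction, with viability read by CellTiter-Glo. Signal was recorded after 10 minutes at room temperature, once log-phase tumour cell lines seeded at 250–500 cells per well in 384-well plates had spent 24 hours settling and then five days under continuous exposure to inhibitors at 0.5, 1, 5, 10, 50, 100, 500 and 1000 nM.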

Test System	surviving fraction
SCC36 HEADNECK	0.978 ± 0.086
OS25HAL BONE	1 ± 0.0091
HCC1806 BREAST	1.11 ± 0.089
HU09 BONE	0.942 ± 0.061
SG43 HEADNECK	0.85 ± 0.13
U2OS BONE	0.916 ± 0.012
HOSMNG BONE	0.996 ± 0.062
CASKI CERVIX	0.996 ± 0.013
SUM44 BREAST	1.04 ± 0.095
MDAMB231 BREAST	0.995 ± 0.026
CAL51 BREAST	0.858 ± 0.035
MDAMB436 BREAST	0.943 ± 0.1
HSSYII SYNOVIAL	0.475 ± 0.013
RDES SOFT TISSUE	1.13 ± 0.032
MDAMB157 BREAST	0.856 ± 0.03
CHLA90 AUTONOMIC GANGLIA	0.907 ± 0.036
CADOES1 SOFT TISSUE	0.895 ± 0.076
SG31 HEADNECK	0.845 ± 0.12
SCC47 HEADNECK	0.968 ± 0.079
S68 BREAST	1.02 ± 0.06
SNU475 LIVER	0.916 ± 0.044

Test System	surviving fraction
22RV1 PROSTATE	0.997 ± 0.034
SG32 HEADNECK	0.859 ± 0.027
SCC003 HEADNECK	0.981 ± 0.037
JURKAT HAEMATOPOIETIC AND LYMPHOID TISSUE	1 ± 0.039
HT1080 SOFT TISSUE	1.03 ± 0.021
CAL120 BREAST	0.852 ± 0.029
MCF7 BREAST	0.878 ± 0.04
MFM223 BREAST	0.361 ± 0.029
LNCAP PROSTATE	0.898 ± 0.11
PCI30 HEADNECK	1.04 ± 0.054
OSHN BONE	0.993 ± 0.023
SG28 HEADNECK	0.968 ± 0.028
HOS BONE	0.9823 ± 0.005
HUO3N1 BONE	0.9503 ± 0.0051
BT20 BREAST	1.17 ± 0.12
SJSA1 BONE	1.08 ± 0.021
JIMT1 BREAST	1.02 ± 0.011
HCC78 LUNG	0.935 ± 0.19
NY BONE	0.895 ± 0.019
NOS1 BONE	0.989 ± 0.16

Same assay, conditions: 100 nM; exposure time: 5 days

Test System	surviving fraction
SCC36 HEADNECK	1.04 ± 0.043
OS25HAL BONE	1 ± 0.013
HCC1806 BREAST	1.07 ± 0.043
HU09 BONE	0.921 ± 0.072
SG43 HEADNECK	0.905 ± 0.24
U2OS BONE	0.825 ± 0.017
HOSMNG BONE	1.02 ± 0.11
CASKI CERVIX	0.941 ± 0.05
SUM44 BREAST	1.04 ± 0.094
MDAMB231 BREAST	1.01 ± 0.034
CAL51 BREAST	0.83 ± 0.03
MDAMB436 BREAST	0.974 ± 0.033
HSSYII SYNOVIAL	0.402 ± 0.007
RDES SOFT TISSUE	1.25 ± 0.16
MDAMB157 BREAST	0.68 ± 0.045
CHLA90 AUTONOMIC GANGLIA	0.912 ± 0.022
CADOES1 SOFT TISSUE	0.9 ± 0.036
SG31 HEADNECK	0.997 ± 0.051
SCC47 HEADNECK	1 ± 0.14
S68 BREAST	1.11 ± 0.3
SNU475 LIVER	0.939 ± 0.019

Test System	surviving fraction
22RV1 PROSTATE	1.02 ± 0.044
SG32 HEADNECK	0.793 ± 0.0076
SCC003 HEADNECK	1.11 ± 0.091
JURKAT HAEMATOPOIETIC AND LYMPHOID TISSUE	1.05 ± 0.02
HT1080 SOFT TISSUE	1.01 ± 0.021
CAL120 BREAST	0.746 ± 0.053
MCF7 BREAST	0.861 ± 0.038
MFM223 BREAST	0.277 ± 0.019
LNCAP PROSTATE	0.934 ± 0.11
PCI30 HEADNECK	1.1 ± 0.1
OSHN BONE	1.01 ± 0.033
SG28 HEADNECK	1.05 ± 0.1
HOS BONE	1.01 ± 0.015
HUO3N1 BONE	0.906 ± 0.055
BT20 BREAST	1.12 ± 0.029
SJSA1 BONE	1.07 ± 0.038
JIMT1 BREAST	1.03 ± 0.042
HCC78 LUNG	0.917 ± 0.093
NY BONE	0.701 ± 0.015
NOS1 BONE	0.965 ± 0.11

Same assay, conditions: 500 nM; exposure time: 5 days

Test System	surviving fraction
SCC36 HEADNECK	0.83 ± 0.039
OS25HAL BONE	0.979 ± 0.0085
HCC1806 BREAST	1.06 ± 0.13
HU09 BONE	0.72 ± 0.011
SG43 HEADNECK	0.95 ± 0.12
U2OS BONE	0.745 ± 0.049
HOSMNG BONE	1.02 ± 0.041
CASKI CERVIX	0.751 ± 0.035
SUM44 BREAST	0.985 ± 0.026
MDAMB231 BREAST	1.01 ± 0.035
CAL51 BREAST	0.673 ± 0.019
MDAMB436 BREAST	0.911 ± 0.032
HSSYII SYNOVIAL	0.274 ± 0.005
RDES SOFT TISSUE	1.08 ± 0.29
MDAMB157 BREAST	0.467 ± 0.033
CHLA90 AUTONOMIC GANGLIA	0.7 ± 0.035
CADOES1 SOFT TISSUE	0.901 ± 0.056
SG31 HEADNECK	0.934 ± 0.069
SCC47 HEADNECK	1.05 ± 0.067
S68 BREAST	0.864 ± 0.18
SNU475 LIVER	0.906 ± 0.022

Test System	surviving fraction
22RV1 PROSTATE	1.04 ± 0.04
SG32 HEADNECK	1.36 ± 0.92
SCC003 HEADNECK	1.09 ± 0.13
JURKAT HAEMATOPOIETIC AND LYMPHOID TISSUE	1.02 ± 0.021
HT1080 SOFT TISSUE	1.03 ± 0.059
CAL120 BREAST	0.565 ± 0.021
MCF7 BREAST	0.878 ± 0.042
MFM223 BREAST	0.282 ± 0.026
LNCAP PROSTATE	0.933 ± 0.11
PCI30 HEADNECK	0.912 ± 0.011
OSHN BONE	1.02 ± 0.035
SG28 HEADNECK	0.967 ± 0.091
HOS BONE	0.9423 ± 0.0071
HUO3N1 BONE	0.727 ± 0.04
BT20 BREAST	1.53 ± 0.17
SJSA1 BONE	1.023 ± 0.0089
JIMT1 BREAST	0.989 ± 0.031
HCC78 LUNG	0.964 ± 0.097
NY BONE	0.337 ± 0.019
NOS1 BONE	0.609 ± 0.046

Same assay, conditions: 1000 nM; exposure time: 5 days

Test System	surviving fraction
SCC36 HEADNECK	0.692 ± 0.082
OS25HAL BONE	1.03 ± 0.03
HCC1806 BREAST	1.1 ± 0.095
HU09 BONE	0.715 ± 0.065
SG43 HEADNECK	0.811 ± 0.16
U2OS BONE	0.739 ± 0.0095
HOSMNG BONE	1.02 ± 0.065
CASKI CERVIX	0.602 ± 0.014
SUM44 BREAST	1.03 ± 0.037
MDAMB231 BREAST	0.983 ± 0.022
CAL51 BREAST	0.6517 ± 0.0035
MDAMB436 BREAST	0.878 ± 0.032
HSSYII SYNOVIAL	0.26 ± 0.0082
RDES SOFT TISSUE	1.06 ± 0.1
MDAMB157 BREAST	0.515 ± 0.0087
CHLA90 AUTONOMIC GANGLIA	0.598 ± 0.072
CADOES1 SOFT TISSUE	1.05 ± 0.043
SG31 HEADNECK	0.934 ± 0.1
SCC47 HEADNECK	0.995 ± 0.019
S68 BREAST	0.81 ± 0.22
SNU475 LIVER	0.886 ± 0.029

Test System	surviving fraction
22RV1 PROSTATE	1.05 ± 0.036
SG32 HEADNECK	0.884 ± 0.15
SCC003 HEADNECK	0.988 ± 0.097
JURKAT HAEMATOPOIETIC AND LYMPHOID TISSUE	1.07 ± 0.021
HT1080 SOFT TISSUE	1.07 ± 0.029
CAL120 BREAST	0.537 ± 0.06
MCF7 BREAST	0.908 ± 0.069
MFM223 BREAST	0.258 ± 0.012
LNCAP PROSTATE	1.03 ± 0.026
PCI30 HEADNECK	0.995 ± 0.093
OSHN BONE	1.04 ± 0.042
SG28 HEADNECK	0.938 ± 0.11
HOS BONE	0.927 ± 0.025
HUO3N1 BONE	0.69 ± 0.013
BT20 BREAST	1.64 ± 0.057
SJSA1 BONE	1.04 ± 0.034
JIMT1 BREAST	1.02 ± 0.025
HCC78 LUNG	0.941 ± 0.084
NY BONE	0.31 ± 0.004
NOS1 BONE	0.37 ± 0.05
